Data taken from patent EP4122499A1, “FIBROBLAST ACTIVATION PROTEIN INHIBITORS AND USE THEREOF” (3B Pharmaceuticals GmbH, priority 2021, dated 2023).

What was measured:
[1] = molecular target: T1, FAP-expressing human WI-38 fibroblasts (Homo sapiens, UniProt Q12884); assay: Competitive FACS binding assay (displacement of Cy5-labeled FAP inhibitor 3BP-2935); conditions: 3 nM Cy5-labeled 3BP-2935, 4°C, 1 hour
T1 construct: FAP-expressing human WI-38 fibroblasts (ECACC 90020107) were cultured in EMEM; host or cells: WI-38 human fibroblasts
T1 sequence (Q12884 1-760): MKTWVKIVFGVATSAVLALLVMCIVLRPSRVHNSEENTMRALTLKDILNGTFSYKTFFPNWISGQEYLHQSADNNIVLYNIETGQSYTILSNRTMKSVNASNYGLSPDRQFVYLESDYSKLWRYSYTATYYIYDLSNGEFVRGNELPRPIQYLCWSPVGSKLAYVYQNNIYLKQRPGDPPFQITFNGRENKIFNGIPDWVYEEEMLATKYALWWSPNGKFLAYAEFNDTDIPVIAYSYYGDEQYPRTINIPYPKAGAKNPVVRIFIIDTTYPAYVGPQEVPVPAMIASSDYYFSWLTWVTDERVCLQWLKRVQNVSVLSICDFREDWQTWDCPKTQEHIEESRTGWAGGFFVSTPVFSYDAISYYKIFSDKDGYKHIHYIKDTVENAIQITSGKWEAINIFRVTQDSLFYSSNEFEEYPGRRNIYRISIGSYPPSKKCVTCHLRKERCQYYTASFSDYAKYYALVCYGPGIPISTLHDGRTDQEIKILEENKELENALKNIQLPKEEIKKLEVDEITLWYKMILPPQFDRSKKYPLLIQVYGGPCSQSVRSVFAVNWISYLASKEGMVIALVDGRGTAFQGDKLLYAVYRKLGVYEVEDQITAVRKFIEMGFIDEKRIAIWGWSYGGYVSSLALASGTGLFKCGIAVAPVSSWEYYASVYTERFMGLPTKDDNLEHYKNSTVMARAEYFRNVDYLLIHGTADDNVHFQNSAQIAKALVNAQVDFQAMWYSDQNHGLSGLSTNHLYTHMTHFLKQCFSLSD
Method: In order to determine binding of compounds according to the present invention to FAP-expressing cells, a competitive FACS binding assay was established.
Cells were diluted in FACS buffer to a final concentration of 100.000 cells per ml and 200 µl of the cell suspension are transferred to a u-shaped non-binding 96-well plate (Greiner).
Cell were washed twice with FACS buffer (see above) and resuspended in 200 µl FACS buffer. Cells were analyzed in an Attune NxT flow cytometer (Thermo Fisher Scientific). Median fluorescence intensities (Cy5 channel) was calculated by Attune NxT software and plotted against test compound concentrations. Four parameter logistic (4PL) curve fitting and pIC50 calculations were performed using ActivityBase software.

Recombinant human DPP4 = molecular target: T2, Recombinant human DPP4 (Homo sapiens, UniProt P27487); assay: DPP4 protease activity assay; assay type: biochemical; conditions: 20 µM GP-AMC substrate; for IC50: read-out: pIC50 (DPP4) (converted)
T2 construct: purchased R&D systems 9168-SE
Method: (§1) The PREP activity assay was performed using the FACS buffer (PBS including 1% FBS, Sigma-Aldrich, Cat# D8537). […] The DPP4 activity assay was performed in DPP assay buffer (25 mM Tris, pH 8.0).
(§2) Four parameter logistic (4PL) curve fitting and pIC50 calculations were performed using ActivityBase software.

Recombinant mouse FAP = molecular target: T3, Recombinant mouse FAP (Mus musculus, UniProt P97321); assay: FRET-based FAP protease activity assay (mouse); assay type: biochemical; conditions: FRET-peptide substrate, 37°C; for IC50: read-out: pIC50 (mouseFAP) (converted)
T3 construct: purchased R&D systems 8647-SE
T3 sequence (P97321 1-761): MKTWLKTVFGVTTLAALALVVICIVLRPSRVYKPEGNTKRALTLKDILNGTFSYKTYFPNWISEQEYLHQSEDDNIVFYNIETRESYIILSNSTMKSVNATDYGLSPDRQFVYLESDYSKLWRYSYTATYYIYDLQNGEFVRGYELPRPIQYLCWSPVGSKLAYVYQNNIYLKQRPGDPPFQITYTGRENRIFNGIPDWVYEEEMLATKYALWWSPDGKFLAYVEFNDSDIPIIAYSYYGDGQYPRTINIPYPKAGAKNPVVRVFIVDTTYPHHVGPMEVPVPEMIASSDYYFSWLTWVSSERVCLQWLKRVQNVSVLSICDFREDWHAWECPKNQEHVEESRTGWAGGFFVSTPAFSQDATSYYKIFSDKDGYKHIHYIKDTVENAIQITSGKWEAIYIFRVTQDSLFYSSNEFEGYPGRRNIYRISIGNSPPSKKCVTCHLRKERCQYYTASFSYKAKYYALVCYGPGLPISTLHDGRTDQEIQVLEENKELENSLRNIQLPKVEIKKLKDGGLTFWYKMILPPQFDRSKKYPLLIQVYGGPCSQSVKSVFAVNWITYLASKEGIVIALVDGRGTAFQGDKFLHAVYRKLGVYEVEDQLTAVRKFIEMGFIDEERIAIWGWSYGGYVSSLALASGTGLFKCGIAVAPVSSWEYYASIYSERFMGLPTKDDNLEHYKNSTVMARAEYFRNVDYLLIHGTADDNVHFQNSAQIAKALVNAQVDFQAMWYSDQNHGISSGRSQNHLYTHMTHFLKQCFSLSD
Method: (§3) In order to determine the inhibitory activity a FRET-based FAP protease activity assay was established.
25 µL of a 30 µM substrate solution, diluted in assay buffer, was added. […] Four parameter logistic (4PL) curve fitting and pIC50 calculations were performed using ActivityBase software.

Human recombinant FAP [2] = molecular target: T4, Human recombinant FAP (Homo sapiens, UniProt Q12884); assay: FRET-based FAP protease activity assay (human); assay type: biochemical; parameters: purchased R&D systems 3715-SE; conditions: FRET-peptide substrate, 37°C; for IC50: read-out: pIC50 (Activity) (converted)
T4 sequence (Q12884 1-760): T1 sequence (Q12884 1-760)
Method: as §3
25 µL of a 30 µM substrate solution, diluted in assay buffer, was added. […] Four parameter logistic (4PL) curve fitting and pIC50 calculations were performed using ActivityBase software (IDBS).

Human recombinant FAP [3] = molecular target: T4, Human recombinant FAP; assay: Surface plasmon resonance assay (Biacore T200, single cycle kinetics); assay type: binding; conditions: SPR, 25°C; for pKD (Biacore): 1:1 Langmuir binding model; for HL [min] (Biacore): half-life
Method: Surface plasmon resonance studies were performed using a Biacore™ T200 SPR system (Cytiva, formerly GE Healthcare). Briefly, polarized light is directed towards a gold-labeled sensor surface, and minimum intensity reflected light is detected. The angle of reflected light changes as molecules bind and dissociate. […] Test compounds are contacted with the loaded surface, and a real-time interaction profile with the FAP ligand is recorded in a sensorgram. In real-time, the association and dissociation of a binding interaction is measured, enabling calculation of association and dissociation rate constants and the corresponding affinity constants. Importantly, a background response is generated due to the difference in the refractive indices of the running and sample buffers, as well as unspecific binding of the test compounds to the flow cell surface. This background is measured and subtracted by running the sample on a control flow cell coated with the same density of capture antibody in the absence of immobilized FAP. Furthermore, baseline drift correction of the binding data is performed, which is caused by slow dissociation of the captured FAP from the immobilized antibody. This drift is measured by injecting running buffer through a flow cell with the antibody and FAP immobilized to the sensor surface.
Biacore™ CM5 sensor chips were used. […] A 150 µL aliquot was transferred into plastic vials and placed into the sample rack of the Biacore™ T200 instrument. Amine Coupling Kit Reagent solutions were transferred into plastic vials and placed into the sample rack: 90 µL of 0.4 M 1-ethyl-3-(3-dimethylaminopropyl)carbodiimide (EDC), and 90 µL of 0.1 M N-hydroxysuccinimide (NHS). A 130 µL aliquot of 1 M ethanolamine-HCl, pH 8.5, was transferred into plastic vials and placed into the sample rack. The Biacore™ liquid system was set-up as follows: Separate bottles containing distilled water (1 L), Running Buffer (500 mL), as well as an empty bottle for waste were placed onto the buffer tray. A preinstalled program for immobilization was used, with an immobilization level of 7000 RU. Immobilization was performed at 25°C. The immobilization procedure of anti-FAP antibodies was performed, as described in the Table 5. Table 5: Immobilization protocol for anti-FAP antibodies used on the CM5 sensor chip.
Human recombinant FAP was diluted in Running Buffer to a final concentration of 20 µg/mL. A 100 µL aliquot of human FAP-Working-Solution was transferred into plastic vials and placed into a sample rack. A 0.5 mM Compound-Stock-Solution was prepared by dissolving each compound in DMSO. For each test compound, Compound-Stock-Solutions were diluted in Running Buffer (HBST) at 500 nM and further diluted with HBST-DMSO Buffer (0.1% DMSO). SPR binding analyses for binary complexes were performed in SCK mode at 25°C. Following three SCK measurements, a baseline drift was assessed by injecting running buffer through a flow cell, with the antibody and FAP immobilized to the sensor surface. Table 6: Protocol for assessing the binding kinetics.
For each test compound, SPR raw data in the form of resonance units (RU) were plotted as sensorgrams using the Biacore™ T200 control software. The signal from the blank sensorgram was subtracted from that of the test compound sensorgram (blank corrected). The blank corrected sensorgram was corrected for baseline drift by subtracting the sensorgram of a SCK run without the test compound (running buffer only). The association rate (kon), dissociation rate (koff), dissociation constant (KD), and t1/2 were calculated from Blank-normalized SPR data using the 1:1 Langmuir binding model from the Biacore™ T200 evaluation software. Raw data and fit results were imported as text files in IDBS. The pKD value (negative decadic logarithm of dissociation constant) was calculated in the IDBS excel template.

recombinant human PREP = molecular target: T5, recombinant human PREP (Homo sapiens, UniProt P48147); assay: PREP protease activity assay; assay type: biochemical; conditions: 50 µM Z-GP-AMC substrate
T5 construct: purchased R&D systems 4308-SE
T5 sequence (P48147 1-710): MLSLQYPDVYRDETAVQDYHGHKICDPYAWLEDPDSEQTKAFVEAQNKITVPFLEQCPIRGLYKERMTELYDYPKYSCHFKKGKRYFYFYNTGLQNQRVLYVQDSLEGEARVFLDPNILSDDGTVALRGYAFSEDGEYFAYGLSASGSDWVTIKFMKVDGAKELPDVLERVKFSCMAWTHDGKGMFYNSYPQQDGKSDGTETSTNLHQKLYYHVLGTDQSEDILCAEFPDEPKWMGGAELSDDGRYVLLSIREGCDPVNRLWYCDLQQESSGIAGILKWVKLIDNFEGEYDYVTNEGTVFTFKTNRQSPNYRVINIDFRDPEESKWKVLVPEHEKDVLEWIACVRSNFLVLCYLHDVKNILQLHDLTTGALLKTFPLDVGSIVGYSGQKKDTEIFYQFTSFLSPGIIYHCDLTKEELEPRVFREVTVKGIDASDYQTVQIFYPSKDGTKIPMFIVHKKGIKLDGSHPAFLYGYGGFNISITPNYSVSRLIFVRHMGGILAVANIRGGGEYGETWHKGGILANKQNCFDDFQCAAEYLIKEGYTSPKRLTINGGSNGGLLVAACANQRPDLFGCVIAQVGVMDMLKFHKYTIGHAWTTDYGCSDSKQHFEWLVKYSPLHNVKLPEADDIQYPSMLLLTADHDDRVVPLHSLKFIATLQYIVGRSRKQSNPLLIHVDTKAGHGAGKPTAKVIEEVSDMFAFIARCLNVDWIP
Method: as §1, §2

T2 sequence (P27487 whole entry): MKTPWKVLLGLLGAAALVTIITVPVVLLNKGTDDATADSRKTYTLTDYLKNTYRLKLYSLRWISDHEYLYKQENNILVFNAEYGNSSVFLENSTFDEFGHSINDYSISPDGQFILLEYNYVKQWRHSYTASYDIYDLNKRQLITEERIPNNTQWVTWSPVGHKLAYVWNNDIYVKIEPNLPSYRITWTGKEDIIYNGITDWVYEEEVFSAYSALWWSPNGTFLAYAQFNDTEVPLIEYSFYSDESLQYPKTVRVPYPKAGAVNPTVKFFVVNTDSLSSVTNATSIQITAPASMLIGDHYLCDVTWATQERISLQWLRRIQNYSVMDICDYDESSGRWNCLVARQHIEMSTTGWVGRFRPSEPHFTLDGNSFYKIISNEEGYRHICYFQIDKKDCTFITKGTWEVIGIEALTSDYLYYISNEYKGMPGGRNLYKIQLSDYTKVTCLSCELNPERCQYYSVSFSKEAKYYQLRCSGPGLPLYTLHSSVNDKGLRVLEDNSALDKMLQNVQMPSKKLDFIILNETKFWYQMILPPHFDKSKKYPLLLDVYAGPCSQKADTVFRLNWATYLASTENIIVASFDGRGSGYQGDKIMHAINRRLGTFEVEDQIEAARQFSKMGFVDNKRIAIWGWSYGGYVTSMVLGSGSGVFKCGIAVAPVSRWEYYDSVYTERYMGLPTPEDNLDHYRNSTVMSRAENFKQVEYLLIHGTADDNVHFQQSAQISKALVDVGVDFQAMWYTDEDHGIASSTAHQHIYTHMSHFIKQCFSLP

| SMILES | IC50 [1] [nM] | IC50 (Recombinant human DPP4) [nM] | IC50 (Recombinant mouse FAP) [nM] | IC50 (Human recombinant FAP [2]) [nM] | pKD (Biacore) (Human recombinant FAP [3]) | HL [min] (Biacore) (Human recombinant FAP [3]) | pIC50 (DPP4) (Recombinant human DPP4) | pIC50 (mouseFAP) (Recombinant mouse FAP) | pIC50 (FACS) [1] | pIC50 (Activity) (Human recombinant FAP [2]) | IC50 (recombinant human PREP) [nM] |
| --- | --- | --- | --- | --- | --- | --- | --- | --- | --- | --- | --- |
| Cc1cc(S(C)(=O)=O)ccc1-c1ccc2nccc(C(=O)NCC(=O)N3CCC[C@H]3C#N)c2c1 | 12.6 | > 1000 | 1.26 | 0.631 | – | – | – | – | – | – | – |
| Cc1cc(S(C)(=O)=O)ccc1-c1ccc2nccc(C(=O)NCC(=O)N3CC(F)(F)C[C@H]3C#N)c2c1 | 2 | 794 | 1.58 | 0.501 | – | – | – | – | – | – | – |
| N#C[C@@H]1CCCN1C(=O)CNC(=O)c1ccnc2ccc(-c3ccc(C(=O)NCCCN(CC(=O)O)C(=O)CN4CCN(CC(=O)O)CCN(CC(=O)O)CCN(CC(=O)O)CC4)cc3)cc12 | – | – | – | – | >11 | >500 | <6 | 8.9 | – | – | – |
| CN(CCCN1CCN(C(=O)CN2CCN(CC(=O)O)CCN(CC(=O)O)CCN(CC(=O)O)CC2)CC1)c1ccc2nccc(C(=O)NCC(=O)N3CC(F)(F)C[C@H]3C#N)c2c1 | – | – | – | – | >11 | >500 | – | 8.6 | 9 | 8.9 | – |
| CS(=O)(=O)c1cc(F)c(-c2ccc3nccc(C(=O)NCC(=O)N4CCC[C@H]4C#N)c3c2)c(F)c1 | 3.16 | > 1000 | 1 | 0.501 | – | – | – | – | – | – | – |
| N#C[C@@H]1CCCN1C(=O)CNC(=O)c1ccnc2ccc(-c3cccc(C(=O)O)c3)cc12 | 3.16 | > 1000 | – | 1.58 | – | – | – | – | – | – | > 1000 |
| N#C[C@@H]1CC(F)(F)CN1C(=O)CNC(=O)c1ccnc2ccc(OCCCN3CCN(C(=O)CN4CCN(CC(=O)O)CCN(CC(=O)O)CCN(CC(=O)O)CC4)CC3)cc12 [drawing 287] | – | – | – | – | – | >500 | <6 | 8.8 | – | – | – |
| N#C[C@@H]1CC(F)(F)CN1C(=O)CNC(=O)c1cc[n+]([O-])c2ccc(-c3ccc(S(=O)(=O)CCCNC(=O)CN4CCN(CC(=O)O)CCN(CC(=O)O)CCN(CC(=O)O)CC4)cc3)cc12 | – | – | – | – | >11 | 110 | 7 | 9.1 | – | – | – |
| N#C[C@@H]1CCCN1C(=O)CNC(=O)c1ccnc2cc(-c3ccc(C(=O)O)cc3)ccc12 | 3.98 | > 1000 | – | 2 | – | – | – | – | – | – | > 1000 |
| CS(=O)(=O)c1ccc(-c2ccc3nccc(C(=O)NCC(=O)N4C[C@@H](F)C[C@H]4C#N)c3c2)cc1 | 1.58 | > 1000 | 0.631 | 0.631 | – | – | – | – | – | – | – |
| CS(=O)(=O)c1ccc(-c2ccc3nccc(C(=O)NCC(=O)N4C[C@H](F)C[C@H]4C#N)c3c2)cc1 | 50.1 | > 1000 | 10 | 3.16 | – | – | – | – | – | – | – |
